From PubChem BioAssay AID652026 (The Scripps Research Institute Molecular Screening Center, 2013)
Active and inactive are the calls of the source.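 Rule for the calls: active = STAT5 reporter signal fold change below 0.5 at a 10 µM dose; inactive = the rest.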

Each compound was assayed on T47D STAT5-luciferase reporter, prolactin-induced, luminescence (assay: STAT5 signaling inhibitors, reporter cells, late-stage follow-up, cell-based, luminescence, T47D, assay provider (AID 652026)). Settings: at 10 µM; stronger effect = lower value.

SMILES | fold change
CN1/C(=C\C(=O)CN2CCCC2)C(C)(C)c2ccccc21 | 0.704 (inactive)
CN1/C(=C\C(=O)C[n+]2ccccc2)C(C)(C)c2ccccc21 | 0.777 (inactive)
CCOC(=O)C1CCCN(CC(=O)/C=C2/N(C)c3ccccc3C2(C)C)C1 (stereo not given) | 0.856 (inactive)
O=C(C[n+]1ccc2ccccc2c1)Nc1ccccc1 | 0.895 (inactive)
CN1/C(=C\C(=O)Cn2cc(C(F)(F)F)ccc2=O)C(C)(C)c2ccccc21 | 0.971 (inactive)
COC(=O)C1CCCCN1CC(=O)/C=C1/N(C)c2ccccc2C1(C)C (stereo not given) | 0.906 (inactive)
Cc1cc[n+](CC(=O)/C=C2\N(C)c3ccccc3C2(C)C)cc1 | 0.738 (inactive)
O=C(C[n+]1ccc2ccccc2c1)c1ccc2ccccc2c1 | 0.818 (inactive)
CN1/C(=C\C(=O)CN2C(=O)NC(C)(c3ccc(Cl)cc3)C2=O)C(C)(C)c2ccccc21 (stereo not given) | 0.769 (inactive)
O=C(C[n+]1ccc2ccccc2c1)c1ccccc1 | 0.909 (inactive)
CN1/C(=C\C(=O)CN2C(=O)c3ccccc3S2(=O)=O)C(C)(C)c2ccccc21 | 0.733 (inactive)
CN1/C(=C\C(=O)CN2CCc3ccccc3C2)C(C)(C)c2ccccc21 | 0.962 (inactive)
Cc1cc[n+](CC(=O)/C=C2\N(C)c3ccccc3C2(C)C)c(C)c1 | 0.67 (inactive)
CN1/C(=C\C(=O)CN2C(=O)c3ccc([N+](=O)[O-])cc3C2=O)C(C)(C)c2ccccc21 | 0.76 (inactive)
CN1/C(=C\C(=O)Cn2cnc3ccc(Cl)cc3c2=O)C(C)(C)c2ccccc21 | 0.845 (inactive)
CN1/C(=C\C(=O)CN2C(=O)c3ccccc3C2=O)C(C)(C)c2ccccc21 | 0.859 (inactive)
CN1/C(=C\C(=O)C[n+]2cccc(-c3ccccc3)c2)C(C)(C)c2ccccc21 | 0.367
COc1ccc2oc(=O)c(C(=O)C[n+]3ccc4ccccc4c3)cc2c1 | 0.843 (inactive)
CN1/C(=C\C(=O)CN2C(=O)C3CC=CCC3C2=O)C(C)(C)c2ccccc21 (stereo not given) | 0.473
CC(C)(C)C(=O)C[n+]1ccc2ccccc2c1 | 0.696 (inactive)
O=C(C[n+]1ccc2ccccc2c1)c1cc2ccccc2oc1=O | 0.305
CN1/C(=C\C(=O)Cn2c(=O)c(C#N)cn(C)c2=O)C(C)(C)c2ccccc21 | 0.739 (inactive)
COc1cccc2cc(C(=O)C[n+]3ccc4ccccc4c3)c(=O)oc12 | 0.965 (inactive)
CN1/C(=C\C(=O)Cn2nnc(-c3ccccc3)n2)C(C)(C)c2ccccc21 | 0.724 (inactive)
CN1/C(=C\C(=O)CN2C(=O)c3ccccc3CS2(=O)=O)C(C)(C)c2ccccc21 | 0.766 (inactive)
